Experimental data reported in patent US20060069132A1, “Azolecarboxamide herbicides” (priority 2004, published 2006).

Tests used:
rice = experiment: Test B pre-/postemergence herbicide test; format: in vivo, Oryza sativa; conditions: Oryza sativa, pre-emergence, 336 h, 0 = no effect, 100 = complete control; for plant injury at 125 g/ha: 125 g ai/ha, read-out: Rice plant response rating (0 to 100 scale); for plant injury at 500 g/ha: 500 g ai/ha, visual rating, read-out: Plant response rating, Rice
Procedure, shortened: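 Formulation: non-phytotoxic solvent mix with surfactant. Timing: preemergence on seed and postemergence on 2–18 cm plants, applied concurrently. Readout after 13–15 d greenhouse: visual 0–100 control rating against controls.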

woolly cupgrass = experiment: Test C pre-/postemergence herbicide test; format: in vivo, Eriochloa villosa; conditions: Eriochloa villosa, pre-emergence, 312 h, read-out: Plant response rating, Cupgrass, Woolly; for pest or weed control at 62 g/ha: 62 g ai/ha, preemergence, scale 0 to 100; for pest or weed control at 125 g/ha: 125 g ai/ha, scale 0 (no effect) to 100 (complete control); for pest or weed control at 125 g/ha / pest or weed control at 500 g/ha: visual, 12 to 14 days; for pest or weed control at 250 g/ha: 250 g ai/ha, scale 0-100; for pest or weed control at 500 g/ha: 500 g ai/ha, scale 0 to 100 (0 no effect, 100 complete control)
Procedure, shortened: (§1)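 Preemergence: seeds planted and treated with compound in non-phytotoxic solvent with surfactant; postemergence: plants at 2 to 18 cm (1- to 4-leaf stage) sprayed likewise. Kept in greenhouse 12 to 14 days, then visually rated against controls, 0 (no effect) to 100 (complete control).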

eastern black nightshade = experiment: Test C pre-/postemergence herbicide test; format: in vivo, Solanum ptycanthum; conditions: pre-emergence, read-out: Plant response rating, Nightshade; for pest or weed control at 62 g/ha: 62 g ai/ha, preemergence, scale 0 to 100; for pest or weed control at 125 g/ha: 125 g ai/ha, scale 0 (no effect) to 100 (complete control); for pest or weed control at 125 g/ha / pest or weed control at 500 g/ha: visual, 12 to 14 days; for pest or weed control at 250 g/ha: 250 g ai/ha, scale 0-100; for pest or weed control at 500 g/ha: 500 g ai/ha, scale 0 to 100 (0 no effect, 100 complete control)
Procedure, shortened: as §1

tropical spiderwort = experiment: Test E pre-/postemergence herbicide test; format: in vivo, Commelina benghalensis
Procedure, shortened: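 Postemergence treatment targeted plants at the 1- to 4-leaf stage (2–18 cm), alongside preemergence treatment of planted seed; both used a non-phytotoxic solvent mixture with surfactant. Visual ratings, 0 = no effect to 100 = complete control, were taken 12 to 14 days later.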

large crabgrass = experiment: Test C pre-/postemergence herbicide test; format: in vivo, Digitaria sanguinalis; conditions: Digitaria sanguinalis, pre-emergence, 312 h, read-out: Plant response rating, Crabgrass, Large; for pest or weed control at 62 g/ha: 62 g ai/ha, preemergence, scale 0 to 100; for pest or weed control at 125 g/ha: 125 g ai/ha, scale 0 (no effect) to 100 (complete control); for pest or weed control at 125 g/ha / pest or weed control at 500 g/ha: visual, 12 to 14 days; for pest or weed control at 250 g/ha: 250 g ai/ha, scale 0-100; for pest or weed control at 500 g/ha: 500 g ai/ha, scale 0 to 100 (0 no effect, 100 complete control)
Procedure, shortened: as §1

[1] = Preemergence, 500 g ai/ha, scale 0 (no effect) to 100 (complete control)

SMILES | plant injury at 125 g/ha (rice) [%] | plant injury at 500 g/ha (rice) [%] | pest or weed control at 62 g/ha (woolly cupgrass) [%] | pest or weed control at 125 g/ha (woolly cupgrass) [%] | pest or weed control at 250 g/ha (woolly cupgrass) [%] | pest or weed control at 500 g/ha (woolly cupgrass) [%] | pest or weed control at 62 g/ha (eastern black nightshade) [%] | pest or weed control at 125 g/ha (eastern black nightshade) [%] | pest or weed control at 250 g/ha (eastern black nightshade) [%] | pest or weed control at 500 g/ha (eastern black nightshade) [%] | Plant response rating, Spiderwort (tropical spiderwort; Postemergence, 250 g ai/ha, scale 0 to 100) | Plant response rating, Spiderwort (tropical spiderwort; [1]) | Plant response rating, Spiderwort (tropical spiderwort; postemergence, 125 g ai/ha, scale 0 to 100) | pest or weed control at 62 g/ha (large crabgrass) [%] | pest or weed control at 125 g/ha (large crabgrass) [%] | pest or weed control at 250 g/ha (large crabgrass) [%] | pest or weed control at 500 g/ha (large crabgrass) [%] | Plant response rating, Spiderwort (tropical spiderwort; Preemergence, 125 g ai/ha, scale 0 to 100) | Plant response rating, Spiderwort (tropical spiderwort; Preemergence, 250 g ai/ha, scale 0 (no effect) to 100 (complete control))
CCc1nn(C(C)(C)C)cc1C(=O)Nc1cc(C(=O)N(C)C)ccc1F [Compound 222, N-[5-[(dimethylamino)carbonyl]-2-fluorophenyl]-1-(1,1-dimethylethyl)-3-ethyl-1H-pyrazole-4-carboxamide] | 90 | 100 | 20 | 100 | 100 | 100 | 85 | 100 | 100 | 100 | 60 | 95 | 40 | 100 | 100 | 100 | 100 |  | 
CCN1N=C(C(C)(C)C)CC1C(=O)Nc1cc(C(=O)N(C)C)ccc1F (stereo not shown) [Compound 268, N-[5-[(dimethylamino)carbonyl]-2-fluorophenyl]-3-(1,1-dimethylethyl)-1-ethyl-4,5-dihydro-1H-pyrazole-5-carboxamide] | 90 | 90 | 50 | 70 | 95 | 95 | 100 | 100 | 100 | 100 |  | 90 |  | 90 | 95 | 100 | 100 | 70 | 85
